Measured values published in ChEMBL document CHEMBL1201862, “PubChem BioAssay data set” (2004).
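48-hour exposure; five concentrations; linearly interpolated endpoints. GI50 is the concentration that inhibits growth by half.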 Calls of active or inactive are those of the source. No stated cut-off is given here; in the data, active = GI50 up to about 1.1 µM and inactive = higher.

Experiments:
Experiment in all cases: NCI-60 cell line screen, 48 h
A498 = system: A498
A549 = system: A549
ACHN = system: ACHN
BT-549 = system: BT-549
CAKI-1 = system: CAKI-1
CCRF-CEM = system: CCRF-CEM
COLO 205 = system: COLO 205
DU-145 = system: DU-145
EKVX = system: EKVX
HCC 2998 = system: HCC 2998
HCT-116 = system: HCT-116
HCT-15 = system: HCT-15
HL-60 = system: HL-60
HOP-62 = system: HOP-62
HOP-92 = system: HOP-92
HT-29 = system: HT-29
Hs-578T = system: Hs-578T
IGROV-1 = system: IGROV-1
K562 = system: K562
KM12 = system: KM12
LOX IMVI = system: LOX IMVI
M14 = system: M14
MCF7 = system: MCF7
MDA-MB-231 = system: MDA-MB-231
MDA-MB-435 = system: MDA-MB-435
MDA-N = system: MDA-N
MOLT-4 = system: MOLT-4
Malme-3M = system: Malme-3M
NCI-H23 = system: NCI-H23
NCI-H460 = system: NCI-H460
NCI-H522 = system: NCI-H522
NCI/ADR-RES = system: NCI/ADR-RES
OVCAR-3 = system: OVCAR-3
OVCAR-4 = system: OVCAR-4
OVCAR-5 = system: OVCAR-5
OVCAR-8 = system: OVCAR-8
PC-3 = system: PC-3
RPMI-8226 = system: RPMI-8226
RXF 393 = system: RXF 393
SF-268 = system: SF-268
SF-295 = system: SF-295
SF-539 = system: SF-539
SK-MEL-28 = system: SK-MEL-28
SK-MEL-2 = system: SK-MEL-2
SK-MEL-5 = system: SK-MEL-5
SK-OV-3 = system: SK-OV-3
SN12C = system: SN12C
SNB-19 = system: SNB-19
SNB-75 = system: SNB-75
SW-620 = system: SW-620
T47D = system: T47D
TK-10 = system: TK-10
U-251 = system: U-251
UACC-257 = system: UACC-257
UACC-62 = system: UACC-62
UO-31 = system: UO-31
786-0 = system: 786-0
NCI-H226 = system: NCI-H226
SR = system: SR

CCCCC(CC)C(=O)Oc1ccc(C(=O)c2ccccc2)c(O)c1 (configuration not stated)
GI50 (A498): 45.9 µM (inactive)
GI50 (A549): 46.8 µM (inactive)
GI50 (ACHN): 48.1 µM (inactive)
GI50 (BT-549): 39.1 µM (inactive)
GI50 (CAKI-1): 43.5 µM (inactive)
GI50 (CCRF-CEM): 43.6 µM (inactive)
GI50 (COLO 205): 61.2 µM (inactive)
GI50 (DU-145): 57 µM (inactive)
GI50 (EKVX): 35.6 µM (inactive)
GI50 (HCC 2998): 52.8 µM (inactive)
GI50 (HCT-116): 43.3 µM (inactive)
GI50 (HCT-15): 40.1 µM
GI50 (HL-60): 55.1 µM (inactive)
GI50 (HOP-62): 55 µM (inactive)
GI50 (HOP-92): 23.2 µM (inactive)
GI50 (HT-29): 55.7 µM (inactive)
GI50 (Hs-578T): 20.6 µM (inactive)
GI50 (IGROV-1): 55.7 µM (inactive)
GI50 (K562): 25.9 µM (inactive)
GI50 (KM12): 15.4 µM (inactive)
GI50 (LOX IMVI): 44.6 µM (inactive)
GI50 (M14): 38.5 µM (inactive)
GI50 (MCF7): 60.4 µM (inactive)
GI50 (MDA-MB-231): > 100 µM (inactive)
GI50 (MDA-MB-435): 35.8 µM (inactive)
GI50 (MDA-N): 41.4 µM (inactive)
GI50 (MOLT-4): 24.9 µM (inactive)
GI50 (Malme-3M): 40.6 µM (inactive)
GI50 (NCI-H23): 35.2 µM (inactive)
GI50 (NCI-H460): 35 µM (inactive)
GI50 (NCI-H522): 31.7 µM (inactive)
GI50 (NCI/ADR-RES): 35.9 µM (inactive)
GI50 (OVCAR-3): 40.5 µM (inactive)
GI50 (OVCAR-4): 31 µM (inactive)
GI50 (OVCAR-5): 38.5 µM (inactive)
GI50 (OVCAR-8): 44.9 µM (inactive)
GI50 (PC-3): 51.5 µM (inactive)
GI50 (RPMI-8226): 15.1 µM (inactive)
GI50 (RXF 393): 49.8 µM (inactive)
GI50 (SF-268): 34.5 µM (inactive)
GI50 (SF-295): 29.4 µM (inactive)
GI50 (SF-539): 5.46 µM (inactive)
GI50 (SK-MEL-28): 36.8 µM (inactive)
GI50 (SK-MEL-2): 56.4 µM (inactive)
GI50 (SK-MEL-5): 39.6 µM (inactive)
GI50 (SK-OV-3): > 100 µM (inactive)
GI50 (SN12C): 44.4 µM (inactive)
GI50 (SNB-19): 68.9 µM (inactive)
GI50 (SNB-75): 23.3 µM (inactive)
GI50 (SW-620): 56.4 µM (inactive)
GI50 (T47D): 45.7 µM (inactive)
GI50 (TK-10): 58.7 µM (inactive)
GI50 (U-251): 46.7 µM (inactive)
GI50 (UACC-257): 38.5 µM (inactive)
GI50 (UACC-62): 32 µM (inactive)
GI50 (UO-31): 20.9 µM (inactive)

O=C1C(NS(=O)(=O)c2ccccc2)=C(N(Cc2ccccc2)Cc2ccccc2)C(=O)c2ccccc21
GI50 (786-0): 49.3 µM (inactive)
GI50 (A549): 33 µM (inactive)
GI50 (ACHN): 44.1 µM (inactive)
GI50 (BT-549): 16.9 µM (inactive)
GI50 (CAKI-1): > 100 µM (inactive)
GI50 (CCRF-CEM): 20.2 µM (inactive)
GI50 (COLO 205): 39.6 µM (inactive)
GI50 (DU-145): 48.1 µM (inactive)
GI50 (EKVX): 53.7 µM (inactive)
GI50 (HCT-116): 36.7 µM (inactive)
GI50 (HCT-15): 37.7 µM
GI50 (HL-60): 20.7 µM (inactive)
GI50 (HOP-62): 41 µM (inactive)
GI50 (HOP-92): 36.3 µM (inactive)
GI50 (HT-29): 60.3 µM (inactive)
GI50 (Hs-578T): 81.3 µM (inactive)
GI50 (IGROV-1): 41.8 µM (inactive)
GI50 (K562): 31.1 µM (inactive)
GI50 (KM12): > 100 µM (inactive)
GI50 (LOX IMVI): 65.3 µM (inactive)
GI50 (M14): 43.7 µM (inactive)
GI50 (MCF7): 49.7 µM (inactive)
GI50 (MDA-MB-231): > 100 µM (inactive)
GI50 (MDA-MB-435): 47.3 µM (inactive)
GI50 (MDA-N): 64.6 µM (inactive)
GI50 (MOLT-4): 21.1 µM (inactive)
GI50 (Malme-3M): 0.273 µM (active)
GI50 (NCI-H226): 64.7 µM (inactive)
GI50 (NCI-H23): 15.8 µM (inactive)
GI50 (NCI-H460): 36.6 µM (inactive)
GI50 (NCI/ADR-RES): 38.5 µM (inactive)
GI50 (OVCAR-3): 30.4 µM (inactive)
GI50 (OVCAR-4): 19.5 µM (inactive)
GI50 (OVCAR-5): > 100 µM (inactive)
GI50 (OVCAR-8): 70.3 µM (inactive)
GI50 (PC-3): 32.4 µM (inactive)
GI50 (RPMI-8226): 18.8 µM (inactive)
GI50 (RXF 393): 15.5 µM (inactive)
GI50 (SF-268): 88.1 µM (inactive)
GI50 (SF-295): 31.9 µM (inactive)
GI50 (SF-539): 67.5 µM (inactive)
GI50 (SK-MEL-28): 40.9 µM (inactive)
GI50 (SK-MEL-2): 20.8 µM (inactive)
GI50 (SK-MEL-5): 80.4 µM (inactive)
GI50 (SK-OV-3): 39.9 µM (inactive)
GI50 (SN12C): 41.5 µM (inactive)
GI50 (SNB-19): 38.6 µM (inactive)
GI50 (SNB-75): 70.8 µM (inactive)
GI50 (SR): 22.7 µM (inactive)
GI50 (SW-620): 38.9 µM (inactive)
GI50 (T47D): 32.1 µM (inactive)
GI50 (TK-10): 66.8 µM (inactive)
GI50 (U-251): 35 µM (inactive)
GI50 (UACC-257): 96.8 µM (inactive)
GI50 (UACC-62): 33.4 µM (inactive)
GI50 (UO-31): 19.2 µM (inactive)
